This is an account of results in the NIST ThermoML archive (doi:10.1016/j.jct.2007.11.006).

For series [1] the following is noted: Crystal.
A short description of series [2]: molar enthalpy of vaporization or sublimation. The settings on record: 298.15 K; Crystal; Drop sublimation at initial T = 411 K and adjusted to 298.15 K.
Series [3] in a line: Molar enthalpy of transition or fusion. The settings on record: Crystal; DSC.

± gives the expanded uncertainty stated by the source.

Regarding `COc1cc(O)cc(OC)c1OC` [3,4,5-trimethoxyphenol], in series [1] (298.1 K, 101.33 kPa, mass of pellet and dimensions), the mass density amounted to 1080 ± 10 kg/m3. Further, in series [1] (DTA), the Normal melting temperature stood at 147.02 ± 0.43 °C. For the same compound, in series [2], the molar enthalpy was determined as 29.9 ± 1.48 kcal/mol. Further, the “Molar enthalpy of transition or fusion” value in series [3] was found to be 7.63 ± 0.645 kcal/mol.

One may read the mass density as mass per unit of volume.
